Measurements: patent publication US9835629B2, “Methods and reagents for biomolecule labeling, enrichment and gentle elution” (Pierce Biotechnology, Inc., priority 2012, dated 2017)

Columns and labels:
[1] = tested on: anti-TMT immobilized antibody resin; test: elution of iodoTMT-labeled peptides of a cell lysate from anti-TMT resin, LC-MS/MS; set-up: species or system mice
Description: Peptides were washed with Tris buffered saline (TBS), […] detergent (Waters), or CHAPS detergent and eluted with 0.4% trifluoracetic acid (pH about 2), or washed with TBS and water prior to elution with DMP at the indicated concentrations and pH. Eluted peptides were analyzed by LC-MS/MS on a Thermo Scientific ORBITRAP XL and data was interpreted with Thermo Scientific PROTEOME DISCOVERER 1.3 to identify the eluted peptides and the number of iodoTMT labeled peptides specifically eluted (percentage shown above each bar). In FIG. 4B, a cell lysate was S-nitrosylated in vitro with nitroglutathione, the free thiols were irreversibly alkylated with iodoacetamide, the nitroso groups were reduced and selectively released with ascorbic acid, the newly exposed cysteines were irreversibly alkylated with iodoTMT, and the samples were then reduced to remove disulfide linkages, alkylated with iodoacetamide, and digested with trypsin. These peptide samples were enriched with the anti-TMT antibody, and samples of the load, the flowthrough, and the non-specific and specific elutions were assessed for peptide recovery and specificity.
Cell lysates were labeled with an irreversible cysteine-reactive iodoacetyl TMT® reagent, digested, and then captured with the anti-TMT™ resin. The bound peptides were eluted non-specifically with different pH and detergent conditions or specifically with different concentrations and pH of DMP elution reagent (FIG. 4A). […] As DMP is not a biological molecule, there is no interference from endogenous levels. In contrast, biotinylated molecules are more difficult to recover and may result in the enrichment of interfering endogenously biotinylated molecules.

anti-TMT™ antibody [2] = test: enrichment and elution of S-nitrosylated, iodoTMT-labeled peptides with anti-TMT antibody; set-up: species or system mice; conditions: in vitro S-nitrosylated cell lysate
Description: Peptides were washed with Tris buffered saline (TBS), […] detergent (Waters), or CHAPS detergent and eluted with 0.4% trifluoracetic acid (pH about 2), or washed with TBS and water prior to elution with DMP at the indicated concentrations and pH. Eluted peptides were analyzed by LC-MS/MS on a Thermo Scientific ORBITRAP XL and data was interpreted with Thermo Scientific PROTEOME DISCOVERER 1.3 to identify the eluted peptides and the number of iodoTMT labeled peptides specifically eluted (percentage shown above each bar). […] These peptide samples were enriched with the anti-TMT antibody, and samples of the load, the flowthrough, and the non-specific and specific elutions were assessed for peptide recovery and specificity.
The cysteine-reactive […] tags and affinity enrichment reagents are used for the enrichment, detection, and quantification of low abundance protein modifications. […] These peptide samples were then enriched with the anti-TMT™ antibody, and a sample of the load, the flowthrough, and the non-specific and specific elutions were assessed for peptide recovery and specificity (FIG. 4B). […]
For total cysteine alkylation, cell lysates and purified proteins were denatured, reduced, and labeled with excess iodoTMTzero or iodoTMTsixplex reagents prior to enzymatic digestion. […] Peptide samples were analyzed using a Thermo Scientific LTQ™ ORBITRAP XL mass spectrometer. […]

anti-TMT™ antibody [3] = test: surface plasmon resonance competitive elution of anti-TMT antibody bound to a TMT-labeled surface; assay type: binding, mice; conditions: washing in μM to mM concentrations, room temperature
Description: (§1) As the protein is labeled at nearly all amine sites, more sites on the protein are likely bound to the resin and more competitor reagent is necessary to elute the bound protein (FIG. 3B).
For total cysteine alkylation, cell lysates and purified proteins were denatured, reduced, and labeled with excess iodoTMTzero or iodoTMTsixplex reagents prior to enzymatic digestion. For cysteine S-nitrosylation quantitation, samples were treated with nitrosylation donor agents (e.g. GSH-NO) and alkylated with methyl methanethiosulfonate (MMTS) to block unmodified sulfhydryl groups. […] An anti-TMT antibody resin was used for labeled peptide enrichment. Peptide samples were analyzed using a Thermo Scientific LTQ™ ORBITRAP XL mass spectrometer. Data were analyzed using Thermo Scientific PROTEOME DISCOVERER 1.3 software. Elution buffer was evaluated by surface plasmon resonance (SPR) using a TMT-derivatized CM5 chip on a GE Healthcare BIACORE 3000 instrument.

Anti-TMT™ antibody resin = test: elution of TMT-labeled protein from anti-TMT antibody resin; set-up: species or system mice; conditions: micromolar to millimolar, intact protein labeled with amine-reactive TMT
Text: as §1

[4] = iodoacetyl TMT-labeled cell lysate peptides

## C[C@@H]1CCC[C@H](C)N1 [DMP, cis-2,6-dimethyl piperidine]
[1]; 10 mM, high pH
  elution efficiency at high pH: even more efficient
  specificity of elution at high pH: lower specificity of elution
[1]; [4]
  number of peptides eluted versus non-specific elution conditions: over 100 times
  specificity of elution: greater than 90%
anti-TMT™ antibody [2]; specific elution
  more peptides yielded than a low pH elution: approximately 50%
anti-TMT™ antibody [2]; specific elution (6% with low pH elution)
  specificity of the enrichment of iodoTMT-labeled peptides: 21%
anti-TMT™ antibody [3]
  elution of bound anti-TMT antibody from TMT-labeled surface: elutes bound antibody within minutes
Anti-TMT™ antibody resin
  elution of bound TMT-labeled protein from anti-TMT antibody resin: efficiently eluted
